Measured values taken from US20130315920A1, “Cross Protective Epitopes of Aspergillus Fumigatus and Candida Albicans” (Cell Medica Limited, priority 2010, published 2013).

Key:
CD4^+ spleen cells = assay: Proliferation assay of purified CD4+ spleen cells ([3H]thymidine); type: cell-based; conditions: mice untreated or vaccinated with A. fumigatus or C. albicans; 5 μg/mL peptide, 3 days
Procedure: A. fumigatus Crf1 protein mediates cross-protection to C. albicans. Mice were injected intranasally with resting A. fumigatus conidia 14 days before infection, or with purified Crf1 protein and murine CpG oligodeoxynucleotide 1862 14, 7 and 3 days before intragastric infection with C. albicans. Note (a) the reduced inflammatory cell recruitment and acanthosis in mice vaccinated with A. fumigatus conidia or Crf1 protein as opposed to control mice shown in FIG. 5a and c and (b) the increase in protective TH1 and regulatory T-cell transcription factors and cytokine levels. […] The results are expressed as mean cpm±SEM of triplicate cultures. […]
DC (1×10^5) and CD4^+ T-cells (5×10^5) were purified from spleens of mice untreated or vaccinated with A. fumigatus or C. albicans, by magnetic separation of MicroBeads (Miltenyi Biotec) and cocultured in round-bottom, 96-well plates in 200 μl complete medium, with and without anti-CD3ε antibody (clone 145-2C11; BD PharMingen), heat-inactivated Aspergillus or Candida (at a cell:fungi ratio of 2:1), 5 μg/mL of Crf1 p41 peptide. […] Incorporation into cellular DNA was measured by liquid scintillation counting. The results are expressed as mean cpm±SEM of triplicate cultures.

[1] = tested on: T-cell lines of 7 donors with different MHC class II alleles; assay: Epitope mapping of Crf1 peptides with IFN-γ ELISPOT; type: cell-based, human; conditions: 7 donors tested, peptide-pulsed autologous DC
From the text: As the identification of potential protective fungal antigens is rather intricate due to the extensiveness of fungal genomes, we analyzed 6 different A. fumigatus recombinant proteins based on their previously reported immunogeneic reactivity in mice and humans^7,10. […] By contrast, GPI-anchored extracellular cell wall glucanase Crf1 and secreted protein peptidase induced high IFN-γ in 6 of 7 and 5 of 10 tested donors, respectively. The response was mediated by CD4^+ TH1 cells, as MHC class II blocking antibody nearly abrogated IFN-γ release (data not shown). Due to the broad response and the sequence similarity to the C. albicans orthologue Crh1, we focused in subsequent experiments on the protein Crf1. By epitope mapping of 7 healthy individuals with different MHC class II alleles, we identified 10 potential candidate epitopes (Table 1). Based on the results obtained by epitope mapping, the probability of antigen presentation by certain MHC class II alleles assessed by epitope prediction^11, previously reported immunogeneic reactivity^12 and sequence similarity to the C. albicans homologue Crh1, we then generated CD4^+ TH1 T-cell clones specific for the peptides p1, p22, p27, p41, p48, p59, p69 and p84 (FIG. 1a and Table 1).
A peptide library covering the complete Crf1 sequence consisting of 94 15-mer peptides overlapping by […] (aa) was divided into sub-pools of 10 peptides and 94 single peptides (p1-p94) (PANATecs). 3 11-mer peptides of p40/41 overlapping by 2aa ([…], […], HTYTIDWTKDA) were obtained from JPT Peptide Technologies.
For analysis of recombinant proteins and epitope mapping, T-cell lines were generated by incubation of 1×10^7 PBMC per well in 6-well cell culture plates with 5 μg/ml protein or peptide for 7d in the presence of 5 U/ml IL-2 (Proleukin, Chiron). Antigen specificity was analyzed by IFN-γ ELISA^42 after restimulation with autologous monocytes incubated overnight with 5 μg/ml protein in a responder to stimulator (R:S) ratio of 5:1. Epitope mapping was performed by IFN-γ ELISPOT^39 after stimulation with peptide-pulsed autologous DC at a R:S ratio of 10:1.

[2] = tested on: PBMC from additional donors; assay: Verification of HLA restriction by stimulation of PBMC from additional donors; type: cell-based, human; conditions: data not shown
From the text: To evaluate the utility of the Crf1 p41 epitope for potential clinical application, we defined the HLA restriction of Crf1 p41-specific CD4^+ T clones from different donors by stimulation with peptide-pulsed partially matched LCLs. […] As presentation of the Crf1 p41 peptide could also be mediated by other MHC class II alleles, we verified the HLA restriction by stimulation of PBMC from additional donors.

C. albicans = assay: Peptide-specific T-cell clones stimulated with inactivated C. albicans yeast; type: cell-based, Candida albicans
From the text: A. fumigatus Crf1 p41-specific T-cell clones are cross-reactive to C. albicans and can be activated by different clinical isolates of both fungi. (a) All A. fumigatus Crf1 p41-specific T-cell clones from different donors respond to stimulation with inactivated C. albicans yeast. IFN-γ values are given after subtraction of the negative control. Shown is 1 clone per antigen and donor (representative experiments, n≧3). (b) A. fumigatus Crf1 p41-specific T-cell clones respond to different inactivated clinical isolates of germinating A. fumigatus conidia and C. albicans yeast.
T-cell cloning was performed as described in below. T-cell clones were stimulated either with mature peptide-pulsed (2.5 μg/ml) or Crf1 mRNA-transfected DC, immature DC incubated for 24 h with A. fumigatus cell extract (20 μg/ml) in the presence of cytokine maturation cocktail or immature DC incubated for 24 h with inactivated A. fumigatus or C. albicans fungus (multiplicity of infection 3) in a R:S ratio of 5:1.
Fungal extracts were generated as described^48 and protein content was measured by Bradford protein assay (Perbio Science) according to the manufacturers' instructions. For inactivated fungus Aspergillus conidia were inoculated in growth medium^49 and cultured for 0, 4, 8 or 12 h. Candida species were cultured for 24 h. Fungi were inactivated with 70% ethanol. Ethanol-inactivated fungi and extracts were validated for sterility by subculturing on Sabouraud dextrose agar.

Sequence: HTYTIDWTKDAVTWS (Peptide found in the Crf1 protein of Aspergillus fumigatus) [p41, Crf1 aa 161-175]
- Antigen-specific proliferation of CD4+ spleen cells (CD4^+ spleen cells): cross-protection could be mediated by T-cells recognizing the same epitope p41
- No. of responders [1]: 5
- Reaction of PBMC to the epitope ([2]; 5 donors lacking HLA-DRB1*03, 04 and 13): all 5 donors lacking HLA-DRB1*03, 04 and 13 MHC class II alleles did not
- Reaction of PBMC to the epitope ([2]; HLA-DRB1*03, 04 and 13 donors): All HLA-DRB1*03, 04 and 13 donors reacted to the Crf1 p41 epitope
- Cross-reactivity with different clinical isolates of A. fumigatus and C. albicans (C. albicans; clinical isolates): could further confirm this cross-reactivity of the Crf1 p41 epitope
- Cross-reactivity of peptide-specific T-cell clones to C. albicans (C. albicans; inactivated C. albicans yeast, established strain): All p41-specific T-cell clones of all donors recognized and responded to C. albicans
